The values below come from US8686044B2, “Amide derivative, pest control agent containing the amide derivative, and use of the amide derivative” (Mitsui Chemicals Agro, Inc., priority 2008, dated 2014).

Read-outs that look alike come from different tables or passages of the source.

Type in all cases: in vivo
One assay has as its system Adoxophyes honmai. In words: Pesticidal test against Adoxophyes honmai (artificial feed dip). The settings on record: 144 h, 2-stage larvae, examined after 6 days, 25° C., read-out: pesticidal rate. Put shortly:
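Thin artificial feed slices dipped 30 s in test solution at a predetermined concentration, air-dried, then offered to 2nd-stage larvae. Kept at 25° C; live and dead larvae counted after 6 days. Five larvae per group, two replicates.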

For the next assay, the system named is Coptotermes formosanus. In words: Pesticidal test against Coptotermes formosanus (treated filter paper). Particulars: 120 h, concentration 30 ppm, examined after 5 days of treatment, 28° C., read-out: pesticidal rate. Here is the method:
Pesticidal Test against Coptotermes formosanus
20 μl of an acetone solution in which a test compound had been prepared at a predetermined concentration was added dropwise to the filter paper having a diameter of […] included in a polypropylene cup, and air-dried, and then 20 μl of water was added thereto. Coptotermes formosanus was released and the cup was capped. They were left to stand in a thermostatic chamber at 28° C., and the numbers of the living pests and the dead pests were examined after 5 days of treatment. The test was carried out with ten larvae per group in two replicates.

The next assay relates to Laodelphax striatellus. In words: Pesticidal test against Laodelphax striatellus (rice seedling spray). Particulars: 144 h, concentration 100 ppm, 3-stage larvae, examined after 6 days, 25° C., read-out: pesticidal rate. An outline of the steps: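 Rice seedlings sprayed with 2.5 ml acetone solution of compound at a predetermined concentration, air-dried, then infested with third-stage Laodelphax striatellus larvae in capped water-containing tubes at 25 °C. Living and dead insects counted after 6 days; ten larvae per group, two replicates.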

For the next assay, the system named is Blattella germanica. Put plainly: Pesticidal test against Blattella germanica (petri dish dry film). The settings on record: 24 h, concentration 100 ppm, female adults, examined after 1 day, 25° C., read-out: pesticidal rate. Put shortly:
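Acetone solution of test compound at a predetermined concentration dried as a film in a 9 cm petri dish; female adult cockroaches released onto it and kept at 25° C. Living and dead counted after 1 day; five insects per group, two replicates.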

Assay [1] deals with Ctenocephalides Felis. Put plainly: Insecticidal test for Ctenocephalides felis, Test Example 1 (dry film in glass tube, 0.5 ml, Table A4). Particulars: adults.
The test system of a further assay is Choristoneura magnanima. Put plainly: Pesticidal test against Choristoneura magnanima (artificial feed dip). The settings on record: 144 h, concentration 1 ppm, 2-stage larvae, examined after 6 days, 25° C., read-out: pesticidal rate. Put shortly:
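Thin artificial feed slices dipped 30 s in compound solution at a set concentration, air-dried, then offered to 2nd-stage larvae held at 25° C. Living and dead larvae counted after 6 days; five larvae per group, two replicates.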

The subject of a further assay is Spodoptera litura. In words: Pesticidal test against Spodoptera litura (cabbage leaf dip). Particulars: foliar, 144 h, concentration 1 ppm, 2-stage larvae, examined after 6 days, 25° C., read-out: pesticidal rate. Put shortly:
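Cabbage leaf pieces dipped 30 seconds in compound solution at a predetermined concentration and air-dried, then offered to second-stage larvae, five per group in two replicates. Held at 25° C. Living and dead larvae counted after 6 days.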

Another assay relates to Musca domestica. Put plainly: Pesticidal test against Musca domestica (petri dish dry film). Particulars: 24 h, concentration 100 ppm, female adults, examined after 1 day, 25° C., read-out: pesticidal rate. Put shortly:
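Dry film from 1 ml acetone solution of compound at a predetermined concentration, air-dried in a 9 cm petri dish; female adult flies released and dish capped. Held at 25° C; living and dead counted after 1 day. Five insects per group, two replicates.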

The next assay concerns Helicoverpa armigera. Put plainly: Pesticidal test against Helicoverpa armigera (cabbage leaf disk dip). Particulars: foliar, 72 h, 2-stage larvae, examined after 3 days, 25° C., read-out: pesticidal rate. An outline of the steps: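 Cabbage leaf disks were dipped for 30 s in test solution at a set concentration and air-dried. Second-instar larvae were placed one per hole and held at 25 °C, with live and dead counts taken after 3 days. Five larvae per group were tested in two replicates.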

For assay [2], the system named is Ctenocephalides Felis. In words: Insecticidal test for Ctenocephalides felis, Test Example 1 (dry film in glass tube, 0.5 ml, Table A4). Particulars: for pest or weed control at 0.1 µg/mL: Ctenocephalides felis, read-out: death rate. The protocol:
Insecticidal Test for Ctenocephalides Felis
0.5 ml of a solution of acetone, the active ingredient, prepared to the prescribed concentration was added dropwise to a glass tube with a flat bottom (internal diameter: 2.6 cm, bottom area: 5.3 cm^2, height: 12 cm), and the solvent was evaporated at room temperature to form a dry film of the agent on the bottom surface. About 10 adults of Ctenocephalides Felis per glass tube were added, and the adults were contact-exposed to the test compound. After 24 hours of the exposure, the conditions of the adults were examined and classified into “alive” and “dead (including a moribund condition)” to determine the death rate (in triplicate).
As the comparative compounds, the following Compounds (A), (B), and (C) disclosed in WO2009/080203, and fipronil were used.

A further assay has as its system Plutella xylostella. Put plainly: Pesticidal test against Plutella xylostella (cabbage leaf dip). The settings on record: foliar, 144 h, concentration 1 ppm, 2-stage larvae, examined after 6 days, 25° C., read-out: pesticidal rate. An outline of the steps:
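Cabbage leaf pieces dipped 30 s in test solution at a predetermined concentration, air-dried, then offered to 2nd-instar larvae, five per group in duplicate. Held at 25° C; living and dead larvae counted after 6 days.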

In another assay the test system is Rhipicephalus sanguineus. Put plainly: Insecticidal test for Rhipicephalus sanguineus (treated glass petri dish, Table A6). The settings on record: adults of Rhipicephalus sanguineus, 18 hour exposure, examined after 48 hours, in single. Here is the method:
Insecticidal Test for Rhipicephalus sanguineus
0.5 ml of a solution of acetone, the active ingredient, prepared to the prescribed dose was added dropwise into a glass petri dish with a diameter of 10 cm, and the acetone was evaporated at room temperature. About 10 adults of Rhipicephalus sanguineus per dish were added, and the dish was covered by another glass petri dish that was treated with the active ingredient in the same manner described above. After 18 hour exposure to the test substance, the adults were transferred into a glass petri dish that was not treated with the active ingredient. After 48 hours of the exposure, the conditions of the adults were examined and classified into “alive” and “dead (including a moribund condition)” to determine the death rate (in single).
As the comparative compounds, said Compounds (B), (C), and (D), and the following Compound (F) disclosed in WO2009/080203, and fipronil were used.

The subject of assay [3] is Ctenocephalides Felis. Put plainly: Insecticidal test for Ctenocephalides felis, Test Example 3 (dry film in glass tube, 0.96 ml, Table A5). The settings on record: adults of Ctenocephalides felis, after 24 hours of exposure, in triplicate. Here is the method: Insecticidal Test for Ctenocephalides felis
0.96 ml of a solution of acetone, the active ingredient, prepared to the prescribed concentration was added dropwise to a glass tube with a flat bottom (internal diameter: 3.6 cm, height: 12 cm), and the solvent was evaporated at room temperature to form a dry film of the agent on the bottom surface. About 10 adults of Ctenocephalides felis per glass tube were added, and they were contact-exposed to the test compound. After 24 hours of the exposure, the conditions of the adults were examined and classified into “alive” and “dead (including a moribund condition)” to determine the death rate was determined (in triplicate).
As the comparative compounds, the following Compounds (D) and (E) disclosed in WO2009/080203, and fipronil were used.

The mark [4] stands for this setting: concentration 0.1 μg/ml, adults, after 24 hours of the exposure, in triplicate.

Regarding `CN(C(=O)c1ccccc1)c1cccc(C(=O)Nc2c(Br)cc(C(F)(C(F)(F)F)C(F)(F)F)cc2Br)c1F` [7-1104, N-(2,6-dibromo-4-(heptafluoropropan-2-yl)phenyl)-2-fluoro-3-(N-methylbenzamide)benzamide], the pest or weed control at 10 ppm with Adoxophyes honmai (concentration 10 ppm) and with Helicoverpa armigera (concentration 10 ppm) was at least 70% each time. For the same compound, in the assay on Coptotermes formosanus, the pest or weed control at 30 ppm was at least 70%. Further, the pest or weed control at 100 ppm in the assay with Laodelphax striatellus, in the assay on Blattella germanica and in the assay with Musca domestica was at least 70% throughout. The “effect in the examination after 12 hours of the exposure” value in the assay on Ctenocephalides Felis [1] was “effective”. Also, the pest or weed control at 1 ppm with Choristoneura magnanima, in the assay with Spodoptera litura and in the assay on Plutella xylostella was at least 70% throughout. In the assay with Ctenocephalides Felis [2] (setting [4]), the pest or weed control at 0.1 µg/mL came out at 73.3%. The “speed of effect as compared with the fipronil” value in the assay with Ctenocephalides Felis [2] (adults, compared with fipronil) is given as “immediate effect”.
As for `CN(C(=O)c1cccc(F)c1)c1cccc(C(=O)Nc2c(I)cc(C(F)(C(F)(F)F)C(F)(F)F)cc2C(F)(F)F)c1F` [7-1732, 2-fluoro-3-(3-fluoro-N-methylbenzamide)-N-(2-iodo-4-(heptafluoropropan-2-yl)-6-(trifluoromethyl)phenyl)benzamide], the pest or weed control at 1 ppm with Adoxophyes honmai (concentration 1 ppm), in the assay with Choristoneura magnanima, in the assay with Spodoptera litura, in the assay with Helicoverpa armigera (concentration 1 ppm) and in the assay on Plutella xylostella was at least 70% in each case. The pest or weed control at 30 ppm in the assay on Coptotermes formosanus is at least 70%. Besides, the pest or weed control at 100 ppm in the assay with Laodelphax striatellus, in the assay on Blattella germanica and in the assay with Musca domestica was at least 70% throughout. For the same compound, in the assay with Ctenocephalides Felis [2] (setting [4]), the pest or weed control at 0.1 µg/mL came to 76.7%.
For `Cc1cc(C(F)(C(F)(F)F)C(F)(F)F)cc(C)c1NC(=O)c1cccc(NC(=O)c2cccnc2Cl)c1F` [compound (D)], the death rate in the assay with Rhipicephalus sanguineus (0.673 mg/m^2) was found to be 0.0%; with Rhipicephalus sanguineus (2.69 mg/m^2), 10.0%; with Rhipicephalus sanguineus (10.8 mg/m^2), 50.0%; in the assay on Ctenocephalides Felis [3] (0.3 μg/ml), 22.0%; with Ctenocephalides Felis [3] (1 μg/ml), 61.4%.
Turning to `CCc1cc(C(F)(C(F)(F)F)C(F)(F)F)cc(C)c1NC(=O)c1cccc(NC(=O)c2ccccc2Cl)c1F` [compound (E)], in the assay on Ctenocephalides Felis [3] (1 μg/ml), the death rate is reported as 0.0%.
`N#Cc1nn(-c2c(Cl)cc(C(F)(F)F)cc2Cl)c(N)c1[S+]([O-])C(F)(F)F` (stereo not shown) [fipronil]: the death rate in the assay with Rhipicephalus sanguineus (0.0431 mg/m^2) was found to be 0.0%; in the assay on Rhipicephalus sanguineus (0.172 mg/m^2), 45.5%; in the assay on Rhipicephalus sanguineus (0.673 mg/m^2) it was 100.0%; in the assay with Ctenocephalides Felis [3] (0.03 μg/ml) it was 70.0%; in the assay with Ctenocephalides Felis [3] (0.1 μg/ml), 100.0%. Moreover, the pest or weed control at 0.1 µg/mL in the assay on Ctenocephalides Felis [2] (24 h) worked out at 92.1%.
